Experimental data: US11884686B2, “Chelate compounds” (priority 2016, dated 2024)
“Also recorded” adds a separate entry of the source.

How the values were obtained:
[1] = In vivo 54Mn biodistribution study in rats; conditions: rat; for % ID retained activity, Brain / % ID retained activity, Bladder / % ID retained activity, Blood / % ID retained activity, Heart / % ID retained activity, Kidney / % ID retained activity, Liver / % ID retained activity, Lungs / % ID retained activity, Muscle / % ID retained activity, Olfactory Bulb / % ID retained activity, Skin / % ID retained activity, Spleen / % ID retained activity, Tibia/Fibula / % ID retained activity, Femur / % ID retained activity, Pituitary Gland: 7 days post single iv 0.62 mmol/kg, LoD 0.002% ID (Prior Art, Chelate 4), 0.005% ID (Chelate 3); for % ID retained activity, Brain: ~30 μCi 54Mn; for in vivo stability from biodistribution profile: 7 days post single iv administration
Method: ^54Mn labeled chelates for biodistribution studies were prepared using the following method. To a 3 mL glass vial fitted with a magnetic stir bar was added the respective manganese containing chelate (1 mg) and 1.0 M ammonium formate, pH=4 (0.5 mL) (pH=5 for prior art Mn Chelate). ^54MnCl2 in 1.0 M HCl (˜500 μCi) was then added and the resulting solution was heated at 40° C. for 16 h. The resulting solution was purified via preparative HPLC to remove unchelated Mn. The radioactive fraction was collected and evaporated to dryness in vacuo. The radioactive residue was taken up in water containing non-radioactive Mn chelate (0.310 M) such that ˜30 μCi of radioactivity was formulated in a dose of 0.620 mmol Mn/kg with an injection volume of 2 mL/kg.
The experimental protocol conformed to the Guide for the Care and Use of Laboratory Animals and was approved by the IACUC at General Electric Global Research (Niskayuna, NY). Female Sprague-Dawley rats (130-150 g; Charles River Laboratories; Massachusetts; USA) were housed in standard cages, provided with ad libitum access to standard commercial food and water, and were maintained on an alternating 12-hr light-dark cycle in rooms with controlled temperature and humidity. Prior to injection of ^54Mn labelled chelates, rats were anesthetized via inhaled 3% Isoflurane (Piramal, NDC 66794-013-25; EZ-Anesthesia EZ700 Isoflurane Vaporizer, S/N 107). The injection site was prepped with alcohol wipes and a temporary 27 Ga catheter (Surflo SROX2419V) was placed in a tail vein. 30 μCi (0.74 MBq) of ^54Mn labelled chelate formulated with respective non-radioactive Mn(II) based chelate was dosed at 0.620 mmol non-radioactive Mn chelate/kg at an injection volume of 2 m L/kg was injected at a rate of 1 mL/min. Following injection animals were individually housed in wire bottom cages lined with filter paper until first urine void was collected. The rats were then cohoused in standard long term caging. 7 days post injection, the animals were sacrificed by CO2 immersion and organs and tissues of interest were removed and assayed for radioactivity using a Wizard 2480 gamma counter (Perkin Elmer, Beaconsfield, UK).
Naïve rats (Charles River Laboratories; Massachusetts; USA) received a single dose of 0.620 mmol/kg (approximately 30 μCi, 0.740 MBq) of test item via tail vein by injection. Additionally, one group of animals received osmolality matched saline (concentrated NaCl for injection: APP Pharmaceuticals part #NDC 63323-187-30 Lot #6008656 mixed with Sterile Water for Injection: Hospira part #NDC 0409-7990-09 Lot #49-396-DKas) as negative control (Table 1). After sacrifice, the organs and tissues were removed and assayed for residual radioactivity (i.e. ^54Mn organ retention) 7 days post single administration.

[2] = Dissociation kinetics via Cu2+ transmetallation (UV-Vis absorbance); type: physicochemical; conditions: for overall kinetic inertness: Cu2+ and Zn2+ transmetallation, all experimental conditions; for nature of the kinetic dissociation curve, Cu2+ exchange: UV-Vis absorbance at 300 nm, all pH and Cu2+ concentrations assessed; for kobs1 / kobs2: 25° C., 0.2 mM chelate; for conversion of Mn chelate during transmetallation: competing Cu2+, FIGS. 9 and 10
Method: Kinetic inertness was evaluated at slightly acidic pH due to the slow rate of dissociation of the paramagnetic complex at physiological pH and to the potential hydrolysis of the metal ions at the concentrations used for the experiments and at pH values close to physiological.
The dissociation kinetics of the prior art Mn Chelate, Mn Chelate 4 and Mn Chelate 3 at a concentration of 0.2 mM was assessed via Cu^2+ transmetallation recording the time-dependent change of the UV-Vis absorbance in the presence of an excess of competing metal ion (10 and 40 equivalents of Cu^2+); at 25° C. and different pH (pH: 5.0; 5.2; 5.4). For all assessments, the reaction mixture contained 0.15 M NaCl; 50 mM NMP. The ? for the acquisition of the UV-Vis spectra was selected based on the difference between the observed absorbance for the Mn(II) based chelates (e.g., prior art Mn Chelate, Mn Chelate 3 and Mn Chelate 4) and the newly formed Cu^2+-complex in order to have the best differentiation between the two chemical species. The UV-Vis spectra were acquired at ? =300 nm on a Perkin-Elmer Lambda 19 spectrophotometer. Indeed, the displacement of Mn(II) ion induced by Cu^2+ led to an increase of the observed absorbance at ? =300 nm for all Mn(II) based chelates in all experimental conditions. This increase is due the formation of the Cu^2+-complex.
For any of the transmetallation experiments carried out with the prior art Mn Chelate (e.g., at different pH; different Zn^2+ or Cu^2+ concentration) it was evident that the variation of the relaxation rate T1 (for the Zn^2+-exchange; FIG. 4) or the variation of the UV-Vis absorbance (for the Cu^2+-exchange; FIG. 5) caused by competing metal ion was a “single phase” process better described as a mono-exponential function. […] The rate of dissociation described by kobs was calculated via equation (1) where [MnL]tot is the total concentration of Mn(II) based chelates and t is the observation time.
These biphasic kinetic curves could be mathematically well fitted with the biexponential equation (2) where A is the observed absorbance; b, A1 and A2 are constants specific for the biphasic dissociation process for a Mn(II) based chelate; kobs1 and kobs2 are the rate constants describing the biphasic dissociation and t is the observation time. A=b−A1e^−k^obs1^t−A2e^−k^obs2t (Equation 2)
The rates of the biphasic dissociation for Mn Chelate 3 and Mn Chelate 4 described by kobs1 and kobs2 and of the monophasic dissociation for the prior art Mn Chelate described by kobs were calculated via equation (2) and (1) respectively for the different experimental conditions utilized in the set of experiments.
From the qualitative comparison of the kinetic curves and preliminary kobs it was evident that Mn Chelate 3 and Mn Chelate 4 dissociate with a different mechanism described by a biexponential function and at a slower rate compared to the prior art Mn Chelate. To quantitatively compare the kinetic inertness of these Mn(II) based chelates, the direct comparison of the evolution of the UV-Vis absorbance at 300 nm was recorded for the Cu^2+ exchange reaction. Direct comparison of the UV-Vis absorbance allowed quantification of the conversion of the Mn(II) based chelates into Cu^2+ based chelates during the transmetallation reaction which can be correlated to the kinetic inertness of the Mn(II) complex. The “conversion” was calculated following equation (3), where At is the absorbance at a time t (or end of the reaction), A0 is the absorbance at time zero (or beginning of the acquisition) and Aeq is the absorbance at the equilibrium.

| Compound | % ID retained activity, Brain [1] | % ID retained activity, Bladder [1] | % ID retained activity, Blood [1] | % ID retained activity, Heart [1] | % ID retained activity, Kidney [1] [% ID] | % ID retained activity, Liver [1] [% ID] | % ID retained activity, Lungs [1] | % ID retained activity, Muscle [1] | % ID retained activity, Olfactory Bulb [1] | % ID retained activity, Skin [1] | % ID retained activity, Spleen [1] | % ID retained activity, Tibia/Fibula [1] | in vivo stability from biodistribution profile [1] | overall kinetic inertness [2] | nature of the kinetic dissociation curve, Cu2+ exchange [2] | kobs1 ([2]; pH = 5.0, CCu2+ 0.002 M) [min⁻¹] | kobs2 ([2]; pH = 5.0, CCu2+ 0.002 M) [min⁻¹] | kobs1 ([2]; pH = 5.0, CCu2+ 0.008 M) [min⁻¹] | kobs2 ([2]; pH = 5.0, CCu2+ 0.008 M) [min⁻¹] | kobs1 ([2]; pH = 5.2, CCu2+ 0.002 M) [min⁻¹] | further results |
| --- | --- | --- | --- | --- | --- | --- | --- | --- | --- | --- | --- | --- | --- | --- | --- | --- | --- | --- | --- | --- | --- |
| CN(C[C@H](O)[C@@H](O)[C@H](O)[C@H](O)CO)C(=O)CCCN1CCN2Cc3cccc(n3)CN(CC1)C(CCC(=O)N(C)C[C@H](O)[C@@H](O)[C@H](O)[C@H](O)CO)C(=O)[O][Mn][O]C(=O)C2CCC(=O)N(C)C[C@H](O)[C@@H](O)[C@H](O)[C@H](O)CO (stereo partly drawn) [Mn Chelate 3] | within endogenous level variability and LOD | ≤LOD | ≤LOD | ≤LOD | 0.026 ± 0.005 | 0.091 ± 0.017 | ≤LOD | ≤LOD | ≤LOD | ≤LOD | ≤LOD | ≤LOD | improved stability compared to the prior art Mn Chelate | evident improvement in overall kinetic inertness | biphasic nature | 0.483 | 0.0023 | 0.378 | 0.0024 | 0.303 | kobs2 ([2]; pH = 5.2, CCu2+ 0.002 M): 0.0015 min⁻¹ |
| CN1CCN2Cc3cccc(n3)CN(CC1)C(CCC(=O)N(C)C[C@H](O)[C@@H](O)[C@H](O)[C@H](O)CO)C(=O)[O][Mn][O]C(=O)C2CCC(=O)N(C)C[C@H](O)[C@@H](O)[C@H](O)[C@H](O)CO (stereo partly drawn) [Mn Chelate 4] |  | ≤LOD | ≤LOD | ≤LOD | 0.038 ± 0.017 | 0.075 ± 0.011 | ≤LOD | ≤LOD | ≤LOD | ≤LOD | ≤LOD | ≤LOD | improved stability compared to the prior art Mn Chelate | evident improvement in overall kinetic inertness; also recorded: most kinetically inert compound examined | biphasic nature | 0.340 | 0.0013 | 0.190 | 0.0009 | 0.240 | % ID retained activity, Femur [1]: ≤LOD; % ID retained activity, Pituitary Gland [1]: ≤LOD; conversion of Mn chelate during transmetallation [2]: dissociates even slower; kobs2 ([2]; pH = 5.2, CCu2+ 0.002 M): 0.0009 min⁻¹; kobs1 ([2]; pH = 5.4, CCu2+ 0.002 M): 0.201 min⁻¹; kobs2 ([2]; pH = 5.4, CCu2+ 0.002 M): 0.001 min⁻¹ |
| CN1CCN2CC(=O)[O][Mn][O]C(=O)CN(CC1)Cc1cccc(n1)C2 [Prior Art Mn Chelate, reference compound] | 0.007 ± 0.002% ID | ≤LOD | ≤LOD | ≤LOD | 0.012 ± 0.002 | 0.072 ± 0.017 | ≤LOD | ≤LOD | ≤LOD | ≤LOD | ≤LOD | 0.002 ± 0.000% ID |  |  | single phase | 0.034 |  | 0.035 |  | 0.022 | % ID retained activity, Femur [1]: 0.003 ± 0.001% ID; % ID retained activity, Pituitary Gland [1]: ≤LOD; conversion of Mn chelate during transmetallation [2]: reaches a full conversion at much shorter time point than Mn Chelate 3; kobs1 ([2]; pH = 5.4, CCu2+ 0.002 M): 0.017 min⁻¹ |
